Experimental data taken from US6150413A, “Triaromatic compounds and pharmaceutical/cosmetic compositions comprised thereof” (Centre International de Recherches Dermatologiques, priority 1997, dated 2000).

Assays:
RAR [1] = assay: mouse-ear oedema induced by topical application of CD270 (test to identify RAR-antagonist molecules); format: in vivo; details: for % of inhibition of the agonist activity: mouse-ear oedema, topical, agonist CD270 0.01% w/v; for RAR-antagonist classification from the mouse-ear oedema table: results in words
Text: (§1) The compounds according to the invention show activity in the test of differentiation of mouse embryonic teratocarcinoma cells (F9) (Cancer Research 43, p. 5268, 1983) and/or in the test of inhibition of ornithine decarboxylase after induction with TPA in mice (Cancer Research 38, p. 793-801, 1978). These tests show the activities of these compounds in the fields of cell differentiation and proliferation respectively. In the cell (F9) differentiation test, it is possible to evaluate an agonist activity as an antagonist activity to retinoic acid receptors. […] These compounds are thus also active in a test which consists in identifying RAR-antagonist molecules, as described in French patent application No. 95/07302 filed on Jun. 19, 1995 by the Applicant. This test comprises the following steps: (i) a sufficient amount of an RAR-agonist molecule is applied topically to an area of the skin of a mammal, (ii) a molecule capable of showing RAR-antagonist activity is administered systemically or topically to this same mammal or to this same area of the mammal's skin, before, during or after step (i), and (iii) the response on the area of the mammal's skin thus treated is evaluated. Thus, the response to a topical application to a mammal's ear of an RAR-agonist molecule, which corresponds to an increase in the thickness of that ear, can be inhibited by the systemic or topical administration of an RAR-antagonist molecule.
Results of a test to identify RAR-antagonist molecules, as described in French patent application No. 95/07302 filed on Jun. 19, 1995 by the Applicant.
The test used is that of mouse-ear oedema induced by topical application of 2-(5,6,7,8-tetrahydro-5,5,8,8-tetramethyl-2-naphthyl)-6-benzo[b]-thiophenecarboxylic acid (CD270) at a concentration of 0.01% on a weight per unit volume basis.
The response can be inhibited by the topical administration of a dose (expressed in % on a weight per unit volume basis) of compound X.

RAR [2] = assay: differentiation of mouse embryonic teratocarcinoma cells (F9), inhibition of the activity of agonist CD2043 (RAR-antagonist identification); format: cell-based; details: for % of inhibition of the agonist activity: F9 cells, compound 10^-5 M, agonist CD2043 10^-8 M; for RAR-antagonist classification from the F9 table: results in words
Text: as §1
Results of a test of differentiation of mouse embryonic teratocarcinoma cells (F9) in order to identify RAR-antagonist molecules, described in Cancer Research 43, p. 5268, 1983.
In the test used, a compound is considered as being an RAR antagonist if it lowers the activity of the agonist (4-[(5,5,8,8-tetramethyl-5,6,7,8-tetrahydro-2-naphthylamino)methyl]benzoicacid, referred to as compound CD2043) on the morphology and secretion of the plasminogen activator by the F9 cells. In this test, the compounds are tested at 10^-5 M and the CD2043 is tested at 10^-8 M.

| Compound | inflammation / thickness of the mouse's ear (RAR [1]; topical CD270, 0.01% w/v, mouse ear) | % of inhibition of the agonist activity (RAR [1]; dose 0.01% w/v) [%] | RAR-antagonist classification from the mouse-ear oedema table (RAR [1]) | % of inhibition of the agonist activity (RAR [2]) [%] | RAR-antagonist classification from the F9 table (RAR [2]) | % of inhibition of the agonist activity (RAR [1]; dose 0.1% w/v) [%] |
| --- | --- | --- | --- | --- | --- | --- |
| CC1(C)CCC(C)(C)c2cc(-c3cc4ccc(C(=O)O)cc4s3)ccc21 [CD270, 2-(5,6,7,8-tetrahydro-5,5,8,8-tetramethyl-2-naphthyl)-6-benzo[b]-thiophenecarboxylic acid, reference compound] | causes an inflammation which is characterized by an increase in the thickness of the mouse's ear |  |  |  |  |  |
| O=C(O)c1ccc(C#C/C=C/c2ccccc2-c2ccccc2)cc1 [Example 1, 4-(4-Biphenyl-2-ylbut-3-en-(E)-1-ynyl)benzoic acid] |  | 78 | RAR-antagonist compounds | 100 | RAR-antagonist compounds |  |
| Cc1ccc(-c2ccccc2/C=C/C#Cc2ccc(C(=O)O)cc2)cc1 [Example 2, 4-[4-(4'-Methylbiphenyl-2-yl)but-3-en-(E)-1-ynyl]benzoic acid] |  | 85 | RAR-antagonist compounds | 94 | RAR-antagonist compounds |  |
| Cc1ccc(-c2cccc(F)c2/C=C/C#Cc2ccc(C(=O)O)cc2)cc1 [Example 11, 4-[4-(3-Fluoro-4'-methylbiphenyl-2-yl)but-3-en-(E)-1-ynyl]benzoic acid] |  |  | RAR-antagonist compounds | 96 | RAR-antagonist compounds | 99 |
| Cc1ccc(-c2ccc(C)cc2/C=C/C#Cc2ccc(C(=O)O)cc2)cc1 [Example 12, 4-[4-(4,4'-Dimethylbiphenyl-2-yl)but-3-en-1-ynyl]benzoic acid] |  | 45 | RAR-antagonist compounds | 87 | RAR-antagonist compounds |  |
| Cc1ccc(-c2c(C)cccc2/C=C/C#Cc2ccc(C(=O)O)cc2)cc1 [Example 14, 4-[4-(6,4'-Dimethylbiphenyl-2-yl)but-3-en-(E)-1-ynyl]benzoic acid] |  |  |  | 95 |  | 93 |
| COCOc1ccc(-c2ccc(C)cc2)c(/C=C/C#Cc2ccc(C(=O)O)cc2)c1 [Example 15, 4-[4-(4-Methoxymethoxy-4'-methylbiphenyl-2-yl)but-3-en-(E)-1-ynyl]benzoic acid] |  | 43 |  | 93 |  |  |
| COCOc1ccc(/C=C/C#Cc2ccc(C(=O)O)cc2)c(-c2ccc(C)cc2)c1 [Example 16, 4-[4-(5-Methoxymethoxy-4'-methylbiphenyl-2-yl)but-3-en-(E)-1-ynyl]benzoic acid] |  | 34 |  | 92 |  |  |
| COCOc1cccc(/C=C/C#Cc2ccc(C(=O)O)cc2)c1-c1ccc(C)cc1 [Example 17, 4-[4-(6-Methoxymethoxy-4'-methylbiphenyl-2-yl)but-3-en-(E)-1-ynyl]benzoic acid] |  |  |  | 98 |  | 94 |
| C/C(=C\C#Cc1ccc(C(=O)O)cc1)c1ccccc1-c1ccc(C)cc1 [Example 18, 4-[4-(4'-Methylbiphenyl-2-yl)pent-3-en-(E)-1-ynyl]benzoic acid] |  |  |  | 69 |  | 41 |
| COCOc1ccc(-c2ccccc2/C=C/C#Cc2ccc(C(=O)O)cc2)cc1 [Example 28, 4-[4-(4'-Methoxymethoxybiphenyl-2-yl)but-3-en-(E)-1-ynyl]benzoic acid] |  | 31 | RAR-antagonist compounds | 96 | RAR-antagonist compounds |  |
| COc1ccc(/C=C/C#Cc2ccc(C(=O)O)cc2)c(-c2ccc(C)cc2)c1 [Example 42, 4-[4-(4'-Methyl-5-methoxybiphenyl-2-yl)but-3-en-(E)-1-ynyl]benzoic acid] |  | 26 |  | 91 |  |  |
| CCCOc1ccc(/C=C/C#Cc2ccc(C(=O)O)cc2)c(-c2ccc(C)cc2)c1 [Example 43, 4-[4-(4'-Methyl-5-propoxybiphenyl-2-yl)but-3-en-(E)-1-ynyl]benzoic acid] |  | 24 |  | 84 |  |  |
| Cc1ccc(-c2c(O)cccc2/C=C/C#Cc2ccc(C(=O)O)cc2)cc1 [Example 44, 4-[4-(4'-Methyl-6-hydroxybiphenyl-2-yl)but-3-en-(E)-1-ynyl]benzoic acid] |  |  |  | 97 |  | 54 |
| COc1cccc(/C=C/C#Cc2ccc(C(=O)O)cc2)c1-c1ccc(C)cc1 [Example 45, 4-[4-(4'-Methyl-6-methoxybiphenyl-2-yl)but-3-en-(E)-1-ynyl]benzoic acid] |  |  |  | 95 |  | 99 |
| COCOc1cccc(-c2ccc(C)cc2)c1/C=C/C#Cc1ccc(C(=O)O)cc1 [Example 52, 4-[4-(3-Methoxymethoxy-4'-methylbiphenyl-2-yl)but-3-en-(E)-1-ynyl]benzoic acid] |  |  | RAR-antagonist compounds | 97 | RAR-antagonist compounds | 97 |
